Results on twelve compounds are retold here after patent US7022737B2, “Manipulating nitrosative stress to kill pathologic microbes, pathologic helminths and pathologically proliferating cells or to upregulate nitrosative stress defenses” (Duke University, priority 1996, dated 2006).

The test system of one data set is Streptomycetes. The experiment in a line: Immunocompromised patient with Streptomycetes lesion. Format: in vivo. The note with it: 4 mmol/kg three times a day p.o. with trimethoprim and sulfamethoxazole, one month. As to the method: An immunocompromised patient recovering from bone marrow transplantation develops a lump in their cheek at a place previously scratched by a garden implement. A culture obtained from the lump is positive for Streptomycetes. The patient is given DL-α-amino-δ-butylthio valeric acid-SR-sulfoximine at a dose of 4 mmol/kg body weight three times a day p.o. The patient is also given trimethoprim (160 mg twice a day) and sulfamethoxazole (800 mg twice a day) for one month.

A further data set concerns the target T1, rat kidney gamma-GCS (Rattus norvegicus, UniProt P19468).
T1 construct: highly purified rat kidney gamma-GCS; from tissue; host or cells: rat kidney
The experiment in a line: Inhibition of mammalian gamma-GCS, protocol similar to E. coli enzyme. It is filed as biochemical.

In the next data set the test system is S. typhimurium. Conditions: J. Gen. Microbiol. 72, 291–301 (1972); cited from earlier work.
The test system of data set [1] is E. coli. Conditions: chloramphenicol alone; cited from earlier work.
The subject of the next data set is athlete's foot. The experiment in a line: Patients with athlete's foot. It is filed as in vivo. The note with it: 50 mM added to miconazole cream. As to the method: A runner develops athlete's foot. […] They substitute a cream containing the same ingredients, with the exception that S-nitroso-N-acetyl cysteine has been added so as to be present at a concentration of 50 mM.
A marathon runner develops athlete's foot. They treat themself with a topical mixture of inorganic nitrite, acetic acid and thiol in a cream base.

The subject of the next data set is trypanosomes. Kind of data set: Patient with trypanosome infection. Format: in vivo. The note with it: L-buthionine-S-sulfoximine 3 mmol/kg p.o. every 4 hours and S-nitrosoglutathione iv 10 mg/kg every 8 hours, one week. As to the method: A person presents with high fever, moderate lymphadenopathy and reports that they have lost 40 pounds in the last month, two months after returning from a safari in sub-Saharan Africa. On questioning, the patient reports having developed during the safari an ulcer on their forearm two days following a bite by a fly. […] The patient is hospitalized and given L-buthionine-S-sulfoximine at a dose of 3 mmol/kg p.o. every 4 hours for one week. In addition, the patient receives S-nitrosoglutathione iv at a dose of 10 mg/kg every 8 hours for one week.

For data set [2], the system named is mixed flora and gram-negativerods. Kind of data set: Diabetic patient with infected skin ulcer. It is filed as in vivo. The note with it: topical cream with S-nitrosoglutathione, oxidized glutathione and dinitrophenacyl glutathione. The source says:
A patient with diabetes develops a skin ulcer on the lower aspect of their left leg. Cultures grow mixed flora and gram-negativerods. A topical cream is applied that contains S-nitrosoglutathione, oxidized glutathione and the glutathione S-conjugate dinitrophenacyl glutathione.

In another data set the test system is oral thrush. Kind of data set: Patients with oral thrush. It is filed as in vivo. The procedure:
An immunocompromised person who is status-post recent chemotherapy develops oral thrush.
A person with leukemia develops oral thrush and is given 2 cc of 50 mM S-nitrosoglutathione, swish and spit, three times/day.
An immunocompromised person with HIV and a low CD4 count develops oral thrush. They are given 5 cc of a solution of 10 mM nitrate.

A further data set deals with mycoplasma. Conditions: 250 mg three times a day.
The subject of data set [3] is metastatic malignant melanoma. Kind of data set: Patient with metastatic malignant melanoma. Format: in vivo. The note with it: L-buthionine-S-sulfoximine 2 mmol/kg p.o. every 4 hours and hydroxyurea 10 mg/kg p.o., one week. The procedure:
A person […] and a history of surgery five years previously to remove malignant melanotic nevi from their upper back and chest is found to have blood in their stool on routine physical examination. […] The patient is administered L-buthionine-S-sulfoximine (2 mmol/kg) p.o. every 4 hours for one week and is given 10 mg/kg of hydroxyurea p.o. 1 hour after every third dose of L-buthionine-S-sulfoximine. […] The patient shown no further evidence of metastases during a six month follow-up.

Data set [4] has as its target T2, E. coli gamma-glutamylcysteine synthetase (Escherichia coli, UniProt P0A6W9).
T2 construct: made in house
The experiment in a line: Inactivation of E. coli gamma-GCS by homocysteine sulfoximines (preincubation with ATP, residual activity by coupled PK/LDH assay). It is filed as biochemical. Conditions: on an active isomer basis. The procedure:
E. coli gamma-GCS was isolated from bacterial cells engineered to overexpress the enzyme; the isolation procedure was similar to that used previously to isolate mammalian gamma-GCS. […] The enzyme was assayed in reaction mixtures (final volume=1.0 ml) containing: 150 mM Tris·HCl, pH 8.2, 100 mM KCl, 25 mM MgCl2, 7.5 mM ATP, 7.5 mM phosphoenolpyruvate, 0.3 mM EDTA, 10 mM L-glutamate, 10 mM L-α-aminobutyrate (an L-cysteine analog), 0.3 mM NADH, 5 IU pyruvate kinase, and 5 IU lactate dehydrogenase. Reaction was initiated by adding gamma-GCS; in control studies, L-α-aminobutyrate was omitted from the reaction mixture. In this assay, pyruvate kinase (PK) and lactate dehydrogenase (LDH) are added in excess to detect formation of ADP, one of the products of the gamma-GCS reaction. The relevant enzyme reactions are shown as equations 1–3 below. Oxidation of NADH to NAD^+ is followed and quantitated spectrophotometrically at 340 nm (1 μmol oxidation gives ΔOD=−6.2) and is directly proportional to product formation by gamma-GCS. [drawing 2]
Inhibition by homocysteine sulfoximines was carried out by preincubating the E. coli gamma-GCS with potential inhibitors in the presence of ATP and then removing aliquots of that mixture at specific times and assaying for residual activity using the assay procedure described above. The preincubation reaction mixtures contained (final volume=400 μl) the following: 210 mM Tris·HCl, pH 8.2, 142 mM KCl, 36 mM MgCl2, 10 mM ATP, 0.4 mM EDTA, various amounts of sulfoximine, and gamma-GCS. At intervals, 50 μl aliquots were removed and added to 1.0 ml assay reaction mixtures to determine residual activity spectrophotometrically. Results of a study indicate that E. coli gamma-GCS loses about 27% of its activity over 30 minutes in the absence of added inhibitors; this loss of activity represents an inherent instability in the enzyme when incubated under these reaction conditions in this particular experiment. […]

A further data set has as its system Chlamydia trachomatous. The experiment in a line: Patients with Chlamydia cervicitis and vaginitis. It is filed as in vivo. Conditions: α-ethyl BSO 4 mmol/kg and nitrate ester of chloramphenicol 12.5 mg/kg, each four times a day p.o. The text has this:
A person with a history of multiple sexual partners and recurrent urinary tract infections presents with cervicitis and vaginitis of four days duration. The patient complains of pain and vaginal discharge.

The test system of data set [5] is E. coli. The experiment in a line: Patients with E. coli septicemia. Format: in vivo. As to the method:
A person with fever, mild hypotension, and moderate hematuria has blood and urine cultures that are positive for E. coli. They are given a diagnosis of E. coli septicemia and urinary tract infection. […]
A person with E. coli sepsis presents feeling nauseated and gravely ill. However, their blood pressure is stable. They receive a standard regimen of IV antibiotics, including ampicillin and gentamicin as well as the siderophore ferrioxamine B at a dose of 10 mg/kg.
A person with E. coli sepsis presents with a blood pressure of 80/50 mm Hg. Broad spectrum antibiotics are initiated including ampicillin and gentamicin. […] The patient then receives an intravenous dose of nitrosated chloramphenicol, 12.5 mg four times/day IV together with methylene blue IV at a dose of 5 mg/kg as well as fluid support.

The test system of data set [6] is E. coli. Kind of data set: Patient with E. coli caused gastroenteritis with bloody diarrhea. Format: in vivo. The procedure:
A patient with E. coli caused gastroenteritis with bloody diarrhea is administered α-ethyl-L-buthionine-S-sulfoximine (hereinafter α-ethyl BSO) orally at a dose of 10 mmol/kg body weight four times a day.
A patient with E. coli caused gastroenteritis and bloody diarrhea is administered α-ethyl BSO orally at a dose of 10 mmol/kg body weight four times a day. In addition, the patient is given chloramphenicol orally at a dose of 12.5 mg/kg four times a day. Bloody diarrhea resolved in 36 hours.

Another data set concerns rickettsia. Format: in vivo. Conditions: 4 mmol/kg four times a day p.o. with chloramphenicol 12.5 mg four times a day p.o.
The subject of a further data set is Actinomycetes israelii. Kind of data set: Patient infected with Actinomycetes israelii. It is filed as in vivo. The note with it: 1 mg/kg four times per day i.v. The source says:
A patient infected with Actinomycetes israelii has a low-grade fever, non-productive cough, and occasional hemoptysis.

T1 sequence (P19468 whole entry): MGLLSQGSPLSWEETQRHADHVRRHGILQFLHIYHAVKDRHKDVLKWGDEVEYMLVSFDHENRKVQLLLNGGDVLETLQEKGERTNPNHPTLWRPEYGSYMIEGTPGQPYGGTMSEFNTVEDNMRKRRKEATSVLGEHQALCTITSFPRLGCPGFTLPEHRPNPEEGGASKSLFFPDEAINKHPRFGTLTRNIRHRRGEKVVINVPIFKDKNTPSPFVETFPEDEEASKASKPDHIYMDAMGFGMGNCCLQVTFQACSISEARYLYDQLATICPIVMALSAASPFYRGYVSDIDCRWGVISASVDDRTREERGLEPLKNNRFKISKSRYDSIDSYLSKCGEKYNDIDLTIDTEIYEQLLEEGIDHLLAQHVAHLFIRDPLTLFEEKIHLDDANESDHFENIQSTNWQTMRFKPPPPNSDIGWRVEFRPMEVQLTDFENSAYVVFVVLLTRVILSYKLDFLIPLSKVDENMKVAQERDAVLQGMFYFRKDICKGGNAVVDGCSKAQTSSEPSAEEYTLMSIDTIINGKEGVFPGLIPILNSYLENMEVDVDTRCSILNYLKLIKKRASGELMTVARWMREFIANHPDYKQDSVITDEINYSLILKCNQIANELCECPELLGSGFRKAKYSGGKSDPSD
T1 sequence (P48508 whole entry partner): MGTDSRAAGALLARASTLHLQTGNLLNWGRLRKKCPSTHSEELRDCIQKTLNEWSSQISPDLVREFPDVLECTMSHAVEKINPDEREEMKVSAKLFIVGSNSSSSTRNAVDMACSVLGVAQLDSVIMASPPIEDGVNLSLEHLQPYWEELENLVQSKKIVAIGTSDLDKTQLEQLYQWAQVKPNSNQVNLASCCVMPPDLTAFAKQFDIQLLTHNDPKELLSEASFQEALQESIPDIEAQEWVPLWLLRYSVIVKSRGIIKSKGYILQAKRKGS
T2 sequence (P0A6W9 whole entry): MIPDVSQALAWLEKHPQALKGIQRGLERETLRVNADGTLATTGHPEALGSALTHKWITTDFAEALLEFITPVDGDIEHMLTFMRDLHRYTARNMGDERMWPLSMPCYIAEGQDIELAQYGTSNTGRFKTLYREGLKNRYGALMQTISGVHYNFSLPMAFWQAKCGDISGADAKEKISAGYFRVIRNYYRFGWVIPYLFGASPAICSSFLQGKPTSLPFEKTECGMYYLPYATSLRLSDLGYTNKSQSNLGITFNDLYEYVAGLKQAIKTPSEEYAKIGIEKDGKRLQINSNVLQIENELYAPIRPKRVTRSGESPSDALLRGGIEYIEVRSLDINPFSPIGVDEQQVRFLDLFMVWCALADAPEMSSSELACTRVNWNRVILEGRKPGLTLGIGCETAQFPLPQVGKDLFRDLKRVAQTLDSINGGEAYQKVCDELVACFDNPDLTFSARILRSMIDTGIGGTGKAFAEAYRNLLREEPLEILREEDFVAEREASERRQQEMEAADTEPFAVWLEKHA

As for `CCCCS(=N)(=O)CCCC(N)C(=O)O` (racemic) [DL-α-amino-δ-butylthio valeric acid-SR-sulfoximine], in the data set with Streptomycetes, the clinical outcome is recorded as “lesion in patient's cheek resolves completely”.

For the compound `CCCCS(=N)(=O)CCC(N)(CC)C(=O)O` (racemic) [α-ethyl-DL-buthionine-SR-sulfoximine, α-Ethyl-D,L-buthionine-R,S-sulfoximine], the melting point is 203 to 205 °C. In addition, the “effectiveness as inhibitor relative to L-buthionine-S-sulfoximine” value on rat kidney gamma-GCS (highly purified rat kidney enzyme, DL,SR mixture) was determined as 0.025%.

For `c1nc[nH]n1` [1,2,4-trazole], the bacterial growth result with S. typhimurium is given as “inhibiting the growth of S. typhimurium”.

For the compound `O=C(N[C@H](CO)[C@H](O)c1ccc([N+](=O)[O-])cc1)C(Cl)Cl` [Chloramphenicol, chloramphenicol], the “usual time to effect” value in the data set with E. coli [1] is “normally has effect in three days”.

As to `CC(=O)N[C@@H](CSN=O)C(=O)O` [S-nitroso-N-acetyl cysteine], the clinical outcome with athlete's foot is listed as “symptoms improve over seven days”.

Regarding `N[C@@H](CCC(=O)N[C@@H](CSN=O)C(=O)NCC(=O)O)C(=O)O` [S-nitrosoglutathione], the clinical outcome is recorded as “blood smear is free of trypanosomes” in the data set with trypanosomes; “culture of the ulcer becomes sterile over three days” in data set [2]; “much improved in three days” with oral thrush (2 cc of 50 mM, swish and spit, three times/day).

With `CC[C@H]1OC(=O)[C@H](C)[C@@H](O[C@H]2C[C@@](C)(OC)[C@@H](O)[C@H](C)O2)[C@H](C)[C@@H](O[C@@H]2O[C@H](C)C[C@H](N(C)C)[C@H]2O)[C@](C)(O)C[C@@H](C)C(=O)[C@H](C)[C@@H](O)[C@]1(C)O` [erythromycin], the clinical outcome with mycoplasma is listed as “symptoms linger”.

Consider `NC(=O)NO` [hydroxyurea], for which the “reduction in size of metastatic tumor” value in [3] is on record as 30%.

In the case of `O=[N+]([O-])O` [nitrate], in the data set on oral thrush (5 cc of 10 mM solution), the clinical outcome is “thrush resolves”.

For the compound `CCCCS(=N)(=O)CCC(N)(CC)C(=O)O` [α-ethyl-L-buthionine-S-sulfoximine], the “effectiveness as inhibitor relative to L-S-BSO” value in data set [4] is on record as “about 20%”. Besides, the “time to resolution of infection” value with Chlamydia trachomatous worked out at 10 days. In addition, the clinical outcome was “symptoms resolve within four days” with E. coli [5] (resistant to conventional antibiotics, 4 mmol/kg four times a day p.o. plus hyperbaric 100% oxygen, ampicillin and gentamicin continued); “symptoms resolve and blood and urine cultures are negative for E. coli after two weeks” with E. coli [5] (septicemia and urinary tract infection, α-ethyl BSO 4 mmol/kg four times a day p.o., S-nitroso-gamma-methyl-L-homocysteine 50 μg/kg i.v., gentamicin); “Bloody diarrhea resolved over four days” with E. coli [6] (orally 10 mmol/kg four times a day). Further, in the data set with E. coli [6] (10 mmol/kg orally four times a day plus chloramphenicol 12.5 mg/kg orally four times a day), the “time to resolution of bloody diarrhea” value is 36 h. Moreover, the “inhibitory activity relative to L-buthionine-S-sulfoximine” value on rat kidney gamma-GCS (expressed on the basis of the active isomer) is listed as “about 0.1%”. In the data set on rickettsia, the “time until patient becomes well” value is 10 days.

Take dinitrophenacyl glutathione: the clinical outcome in [2] is listed as “culture of the ulcer becomes sterile over three days”.

As to serinyl-S-nitrosocysteinyl-gluatamine, the clinical outcome in the data set on Actinomycetes israelii was “symptoms resolve over three weeks”.

As usually defined, the melting point is the temperature of the solid-liquid transition.
